Source: patent US11142525B2 (Pfizer Inc., priority 2018, dated 2021)
pIC50, pKi: −log10 of the molar value. Where two headings read alike, the source gives them in different places.

Legend:
[1] = system: phospho-SLP-76 (Ser376) in Jurkat cells; experiment: Phospho-SLP-76 (Ser376) Homogeneous Time Resolved Fluorescence (HTRF) assay in Jurkat cells; type: cell-based; settings: Homo sapiens, read-out: SLP76 Assay_IC50
Procedure: Jurkat cells were seeded at 90,000 cells/well in 90 uL of RPMI1640 growth medium containing 10% FBS and incubated at 37° C. with 5% CO2 overnight. The following day, compounds were serially diluted from a 10 mM top dose for an 11-point 3 fold dilution curve in DMSO. Compounds were intermediately diluted 1:100 into growth media prior to diluting 1:10 on cells for final concentration 10 μM to 0.1 nM in 0.1% DMSO. After 30 minutes pre-treatment with compounds, the cells were stimulated using 200 μg/mL of F(ab)2 complexed anti-CD3 (clone UCTH1) for 15 min at 37° C. with 5% CO2. Stimulation was stopped with ice cold PBS and cells were harvested by centrifugation before lysis in Cisbio lysis buffer (Cisbio, Bedford, Mass.). Lysates were transferred to white, low-volume plates containing anti-phospho-SLP-76-Cryptate plus anti-phospho-SLP-76-d2 HTRF antibodies and incubated overnight at room temperature protected from light according to the manufacturer's protocol (Cisbio, Bedford, Mass.). HTRF was measured on a Perkin Elmer Envision and IC50 values were calculated by concentration-response curve fitting utilizing four-parameter nonlinear regression analyses.

[2] = target: human full-length recombinant HPK1 (Homo sapiens (Human), UniProt Q92918); experiment: HPK1 biochemical enzyme assay, microfluidic mobility shift assay (MSA); settings: read-out: HPK1 Enzyme Assay_Ki
Procedure: HPK1 enzyme inhibition was measured using a microfluidic mobility shift assay (MSA). […] The reactions were conducted for 60 min at 37° C., stopped by the addition of 50 μL of 0.015 M EDTA, pH 8, and the extent of reactions (˜15-20% conversion with no inhibitor) was determined after electrophoretic separation of the fluorescently labeled peptide substrate and phosphorylated product on an LabChip EZ Reader II (PerkinElmer, Inc., Waltham, Mass.). […]

[3] = Phospho-SLP-76 (Ser376) HTRF, anti-CD3 stimulation
[4] = 30 min pre-treatment, anti-CD3 stimulation 15 min, HTRF
[5] = mobility shift assay, 75 μM ATP, Morrison equation, tight-binding competitive inhibition

Chain of human full-length recombinant HPK1 (Q92918 whole entry): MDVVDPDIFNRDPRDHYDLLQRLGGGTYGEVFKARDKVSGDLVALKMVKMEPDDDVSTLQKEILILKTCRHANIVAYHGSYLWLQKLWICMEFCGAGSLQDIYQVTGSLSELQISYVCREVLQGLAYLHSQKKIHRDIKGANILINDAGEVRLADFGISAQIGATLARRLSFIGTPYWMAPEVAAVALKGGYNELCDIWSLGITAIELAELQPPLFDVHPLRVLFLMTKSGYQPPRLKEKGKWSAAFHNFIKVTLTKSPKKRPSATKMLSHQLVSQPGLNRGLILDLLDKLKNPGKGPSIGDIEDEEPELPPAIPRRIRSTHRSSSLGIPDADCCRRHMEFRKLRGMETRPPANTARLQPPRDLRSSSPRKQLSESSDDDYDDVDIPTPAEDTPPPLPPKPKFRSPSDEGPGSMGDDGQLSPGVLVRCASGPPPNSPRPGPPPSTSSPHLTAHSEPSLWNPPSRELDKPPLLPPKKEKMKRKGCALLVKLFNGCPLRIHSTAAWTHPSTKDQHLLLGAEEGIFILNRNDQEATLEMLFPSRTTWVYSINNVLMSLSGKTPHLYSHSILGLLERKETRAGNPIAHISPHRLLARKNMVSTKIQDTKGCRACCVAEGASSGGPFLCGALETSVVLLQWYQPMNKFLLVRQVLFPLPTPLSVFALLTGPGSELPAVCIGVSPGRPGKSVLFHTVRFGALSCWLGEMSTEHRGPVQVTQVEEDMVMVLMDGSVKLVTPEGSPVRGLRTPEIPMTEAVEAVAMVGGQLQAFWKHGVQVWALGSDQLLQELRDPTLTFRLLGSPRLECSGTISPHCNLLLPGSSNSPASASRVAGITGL

Row | SMILES | pIC50 [1, 3] | pKi ([2]; HPK1 mobility shift assay) | pIC50 [1, 4] | pKi [2, 5]
1 | CNCc1nc(C2CCC2)cc2c1CN(c1cccc(-c3nncn3C(C)C)n1)C2=O [Example 69, 6-cyclobutyl-4-[(methylamino)methyl]-2-{6-[4-(propan-2-yl)-4H-1,2,4-triazol-3-yl]pyridin-2-yl}-2,3-dihydro-1H-pyrrolo[3,4-c]pyridin-1-one] | 6.61 | 9.28 |  | 
2 | CCn1c(C)nnc1-c1cccc(N2Cc3c(cc(C4(C)CC4)nc3CN)C2=O)n1 [Example 127, 4-(aminomethyl)-2-[6-(4-ethyl-5-methyl-4H-1,2,4-triazol-3-yl)pyridin-2-yl]-6-(1-methylcyclopropyl)-2,3-dihydro-1H-pyrrolo[3,4-c]pyridin-1-one] | 6.36 | 8.82 |  | 
3 | CNCc1nc(C2(C)CC2)cc2c1CN(c1cccc(-c3nncn3C3CCC3)n1)C2=O [Example 65, 2-[6-(4-cyclobutyl-4H-1,2,4-triazol-3-yl)pyridin-2-yl]-4-[(methylamino)methyl]-6-(1-methylcyclopropyl)-2,3-dihydro-1H-pyrrolo[3,4-c]pyridin-1-one] |  |  | 6.94 | 9.46
4 | CC(C)n1cnnc1-c1cccc(N2Cc3c(cc(N4[C@H](C)C[C@@H]4C)nc3CN)C2=O)n1 [Example 34, 4-(aminomethyl)-6-[(2R,4S)-2,4-dimethylazetidin-1-yl]-2-{6-[4-(propan-2-yl)-4H-1,2,4-triazol-3-yl]pyridin-2-yl}-2,3-dihydro-1H-pyrrolo[3,4-c]pyridin-1-one] |  |  | 6.42 | 8.88
5 | CNCc1nc(C2(C)CC2)cc2c1CN(c1ccc(F)c(-c3nncn3C(C)C)n1)C2=O [Example 83, 2-{5-fluoro-6-[4-(propan-2-yl)-4H-1,2,4-triazol-3-yl]pyridin-2-yl}-4-[(methylamino)methyl]-6-(1-methylcyclopropyl)-2,3-dihydro-1H-pyrrolo[3,4-c]pyridin-1-one] | 5.18 | 7.45 |  | 
6 | CCN(CC)c1cc2c(c(CNC)n1)CN(c1cccc(-c3nncn3C(C)C)n1)C2=O [Example 4, 6-(diethylamino)-4-[(methylamino)methyl]-2-{6-[4-(propan-2-yl)-4H-1,2,4-triazol-3-yl]pyridin-2-yl}-2,3-dihydro-1H-pyrrolo[3,4-c]pyridin-1-one] |  |  | 6.97 | 9.41
7 | CCN(c1cc2c(c(CNC)n1)CN(c1cccc(-c3nncn3C)n1)C2=O)C(C)C [Example 108, 6-[ethyl(propan-2-yl)amino]-4-[(methylamino)methyl]-2-[6-(4-methyl-4H-1,2,4-triazol-3-yl)pyridin-2-yl]-2,3-dihydro-1H-pyrrolo[3,4-c]pyridin-1-one] | 6.23 | 8.43 |  | 

The remaining compounds from weak to strong by pIC50 [1, 3], led by results:

Row | pIC50 [1, 3] | pKi ([2]; HPK1 mobility shift assay) | pIC50 [1, 4] | pKi [2, 5] | SMILES
8 | 6.70 | 9.11 |  |  | CCCn1c(C)nnc1-c1cccc(N2Cc3c(cc(N(C)CC)nc3CNC)C2=O)n1 [Example 130, 6-[ethyl(methyl)amino]-4-[(methylamino)methyl]-2-[6-(5-methyl-4-propyl-4H-1,2,4-triazol-3-yl)pyridin-2-yl]-2,3-dihydro-1H-pyrrolo[3,4-c]pyridin-1-one]
9 | 6.87 | 9.12 |  |  | Cc1nnc(-c2cccc(N3Cc4c(cc(N5CCC[C@@H]5C)nc4CN)C3=O)n2)n1C(C)C [Example 162]
10 | 7.08 | 9.59 |  |  | CCn1cnnc1-c1cccc(N2Cc3c(cc(N4[C@H](C)CC[C@H]4C)nc3CNC)C2=O)n1 [Example 106, 6-[(2R,5R)-2,5-dimethylpyrrolidin-1-yl]-2-[6-(4-ethyl-4H-1,2,4-triazol-3-yl)pyridin-2-yl]-4-[(methylamino)methyl]-2,3-dihydro-1H-pyrrolo[3,4-c]pyridin-1-one]
11 | 7.15 | 9.39 |  |  | CCC(CC)n1cnnc1-c1cccc(N2Cc3c(cc(N(CC)CC)nc3CN)C2=O)n1 [Example 122, 4-(aminomethyl)-6-(diethylamino)-2-{6-[4-(pentan-3-yl)-4H-1,2,4-triazol-3-yl]pyridin-2-yl}-2,3-dihydro-1H-pyrrolo[3,4-c]pyridin-1-one]
